Usually melting point stands for the temperature, or range, at which the solid turns liquid.

Regarding `CNCC[C@@H](c1ccccc1)c1c[nH]c2cccc(OC)c12` [[(S)-3-(4-Methoxy-1H-indol-3-yl)-3-phenyl-propyl]-methyl-amine], the melting point was in the range of 134 to 137 °C.

These data come from patent US7598399B2, “Methods for synthesis of 3-amino-1-arylpropyl indoles” (Roche Palo Alto LLC, priority 2005, dated 2009).
